Source: patent publication US20150037399A1, “NOVEL USE OF PIPOXOLAN AND ITS PHARMACEUTICAL COMPOSITION” (China Medical University, priority 2013, published 2015)

Columns and labels:
[1] = test system: neurological deficits in ischemic rats; assay: Evaluation of neurological deficits after ischemia-reperfusion; type: in vivo, Sprague-Dawley (SD) rats; conditions: 24 hr after reperfusion; for neurological deficits (score 0-5): mean±SE
Method: Focal ischemia was induced by occlusion of both common carotid arteries (CCA) and the right middle cerebral artery (MCA). Eighteen rats were randomly assigned to 3 treatment groups, six rats for each group. Group 1 rats were treated with saline and groups 2 and 3 treated with pipoxolan (10 mg/kg and 30 mg/kg, respectively). Rats were fasted overnight with free access to water. Pipoxolan (10, 30 mg/kg) was orally administered 1 hr prior to transient focal cerebral ischemia-reperfusion. Animals then were anesthetized with zoletil® (25 mg/kg i.p.), and the skull was exposed, and a small burr hole was produced over the MCA. Beneath the right MCA, proximal to the major bifurcation of the right MCA, distal to the lenticulostriate arteries, and rostral to the rhinal fissure, a 10-0 nylon monofilament was placed. The artery then was lifted and the nylon filament rotated clockwise. Both CCA were then occluded using a microvascular clip. After 90 minutes of occlusion, reperfusion was established by removing the microvascular clips from the CCA, rotating the nylon monofilament counterclockwise and removing it from beneath the MCA. After 24 hr, all rats were alive and neurobehavioral deficits evaluation and infarct assessment were performed Twenty four hours following reperfusion, neurological function of rats was assessed. The degree of neurological deficits were divided 0-5 (higher score is for more severe neurological deficits) as follows: 0=no neurological deficits, 1=failure to extend left forepaw fully, 2=circling to the left, 3=falling to left, 4=no spontaneous walking with a depressed level of consciousness, and 5=death. Neurological evaluation was done by an observer who was blind to the treatment conditions of the animals. After completion of the neurobehavioral evaluation, rats were deeply anesthetized by an intraperitoneal injection of zoletil® (50 mg/kg) followed by intracardiac perfusion with 200 ml of freezing PBS and animals were then decapitated. The brain was removed and sliced in 2-mm sections using a rodent brain matrix slicer. The sections were stained with 2% 2,3,5-triphenyltetrazoliumchloride (TTC) for 10 min at 37° C. and fixed in 10% formalin. The image of each section was digitized and the infarct area was determined morphometrically using Image-Pro Plus 6.0 (Media Cybernetics, Md., USA).

[2] = test system: carotid-ligation induced intimal hyperplasia; assay: Carotid ligation model, intima/media ratio (hematoxylin-eosin staining); type: in vivo, ICR mice; conditions: mice, vs control group
Method: (§1) Male ICR mice, weighing 20 to 25 g, were used as a carotidligation model. Fifteen mice were randomly assigned to 3 treatment groups, five mice for each group. All mice were fasted overnight with free access to water, then anesthetized with zoletil® (25 mg/kg i.p.). Carotid ligation was performed by a midline neck incision and the left common carotid artery exposed. The carotid artery was completely ligated just proximal to the carotid bifurcation, and the right carotid artery served as a non-injured control artery. The incision was closed after ligation, and the animals were allowed to recover. On the day of carotid ligation, mice were randomized into 3 treatment groups and anesthetized as described. Group 1 mice were treated with saline and groups 2 and 3 treated with pipoxolan (10 mg/kg and 30 mg/kg, respectively). Subsequent pipoxolan and saline treatments were given by gastric gavage on the second day after carotid ligation and once daily for 28 days. […] Images were digitized and analyzed with Image-Pro software. The areas of the lumen, internal elastic lamina (IEL), and external elastic lamina (EEL) were determined by computerized planimetry. The intima area was calculated by subtracting the luminal from the IEL area, and media area was determined by subtracting the IEL area from the EEL area. The ratio of intima to media area (I/M ratio) was calculated and analyzed. […]

PCNA-positive cells = assay: Carotid ligation model, PCNA antibody staining of the carotid artery; type: in vivo, ICR mice; conditions: mice
Method: as §1

MMP-2 = assay: Western blot of MMP-2 in PDGF-BB-stimulated VSMCs; type: cell-based
Method: The role of matrix metalloproteinase-2/9 (MMP-2/9) and the Ras/MEK/ERK signaling pathways were used to evaluate the effect of pipoxolan on VSMCs migration. The protein expression levels were determined by Western blot analysis. Each vertical bars represented mean±S.E. **p<0.01 and ***p<0.001 compared with control group (n=6 in each group).

[3] = 10 mg/kg p.o. once daily for 28 days after carotid ligation
[4] = 30 mg/kg p.o. once daily for 28 days after carotid ligation

Cl.O=C1OC(CCN2CCCCC2)OC1(c1ccccc1)c1ccccc1 (stereo not shown) [pipoxolan, 5,5-diphenyl-2-(2-piperidin-1-ylethyl)-1,3-dioxolan-4-one hydrochloride]
reduction of neurological deficits ([1]; 10 mg/kg p.o.): 31.25%
neurological deficits (score 0-5) ([1]; 10 mg/kg p.o.): 2.20±0.20
reduction of neurological deficits ([1]; 30 mg/kg p.o.): 46.88%
neurological deficits (score 0-5) ([1]; 30 mg/kg p.o.): 1.7±0.21
percent reduction of I/M ratio (intima/media) [2, 3]: 24.21%
percent reduction of I/M ratio (intima/media) [2, 4]: 47.20%
percent inhibition of PCNA-positive cells (PCNA-positive cells; [3]): 42.11%
percent inhibition of PCNA-positive cells (PCNA-positive cells; [4]): 62.40%
reduction of MMP-2 protein level (MMP-2; 10 μM): 12.4%
reduction of MMP-2 protein level (MMP-2; 15 μM): 24.4%
